In PubChem BioAssay AID248 (DTP/NCI, 2004):
Where “and” joins values, the source holds several entries; their conditions need not be identical. Equal values may be shown once. Toxic doses and inconclusive results are not listed. Cut-off read from the data, not from the text of the source: active = T/C of 150% or more; inactive = T/C below 125%.

Test system: L1210 leukemia ip in BDF1 mice, survival T/C
Assay: NCI In Vivo Anticancer Drug Screen. Data for tumor model L1210 Leukemia (intraperitoneal) in B6D2F1 (BDF1) mice
Settings: endpoint: mean survival time, higher = longer survival
Method in brief: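 Survival endpoint. Drug-treated group vs vehicle group, expressed as T divided by C. Tumor passaged by transplantation.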

[1] = dose: 100.0 mg/kg/injection, schedule: Q04DX003 (ip), vehicle: Klucel (hydroxypropylcellulose) (HPC)
[2] = dose: 200.0 mg/kg/injection, schedule: Q04DX003 (ip), vehicle: Klucel (hydroxypropylcellulose) (HPC)
[3] = dose: 400.0 mg/kg/injection, schedule: Q04DX003 (ip), vehicle: Klucel (hydroxypropylcellulose) (HPC)
[4] = dose: 100.0 mg/kg/injection, schedule: Q01DX001 (ip), vehicle: saline
[5] = dose: 200.0 mg/kg/injection, schedule: Q01DX001 (ip), vehicle: saline
[6] = dose: 400.0 mg/kg/injection, schedule: Q01DX001 (ip), vehicle: saline
[7] = dose: 100.0 mg/kg/injection, schedule: Q01DX001 (ip), vehicle: carboxymethylcellulose (CMC)
[8] = dose: 200.0 mg/kg/injection, schedule: Q01DX001 (ip), vehicle: carboxymethylcellulose (CMC)
[9] = dose: 400.0 mg/kg/injection, schedule: Q01DX001 (ip), vehicle: carboxymethylcellulose (CMC)
[10] = dose: 100.0 mg/kg/injection, schedule: Q04DX003 (ip), vehicle: saline
[11] = dose: 200.0 mg/kg/injection, schedule: Q04DX003 (ip), vehicle: saline
[12] = dose: 400.0 mg/kg/injection, schedule: Q04DX003 (ip), vehicle: saline
[13] = dose: 100.0 mg/kg/injection, schedule: Q01DX009 (ip), vehicle: saline
[14] = dose: 200.0 mg/kg/injection, schedule: Q01DX009 (ip), vehicle: saline
[15] = dose: 100.0 mg/kg/injection, schedule: Q04DX003 (ip), vehicle: saline with Tween-80
[16] = dose: 200.0 mg/kg/injection, schedule: Q04DX003 (ip), vehicle: saline with Tween-80
[17] = dose: 400.0 mg/kg/injection, schedule: Q04DX003 (ip), vehicle: saline with Tween-80
[18] = dose: 600.0 mg/kg/injection, schedule: Q01DX001 (ip), vehicle: carboxymethylcellulose (CMC)
[19] = dose: 100.0 mg/kg/injection, schedule: Q04DX002 (ip), vehicle: Klucel (hydroxypropylcellulose) (HPC)
[20] = dose: 200.0 mg/kg/injection, schedule: Q04DX002 (ip), vehicle: Klucel (hydroxypropylcellulose) (HPC)
[21] = dose: 100.0 mg/kg/injection, schedule: Q01DX009 (ip), vehicle: Klucel (hydroxypropylcellulose) (HPC)
[22] = dose: 100.0 mg/kg/injection, schedule: Q01DX009 (ip), vehicle: saline with Tween-80
[23] = dose: 200.0 mg/kg/injection, schedule: Q01DX009 (ip), vehicle: saline with Tween-80
[24] = dose: 400.0 mg/kg/injection, schedule: Q01DX009 (ip), vehicle: saline with Tween-80

Measured: T/C

CCOC(=O)COc1cc(Cl)c(S(=O)(=O)F)cc1Cl
inactive: [1] 96 % of control | [2] 104 % of control | [3] 91 % of control

CCN(CC)S(=O)(=O)c1ccc(OC)c(NC(=O)c2ccc(C(=O)Nc3cc(S(=O)(=O)N(CC)CC)ccc3OC)cc2)c1
inactive: [4] 97 % of control | [5] 94 % of control | [6] 102 % of control

N=Nc1ccc2c(O)c3ccccc3c(O)c2c1
inactive: [7] 107 % of control | dose: 100.0 mg/kg/injection, schedule: Q01DX009 (ip), vehicle: carboxymethylcellulose (CMC) 100 % of control and 103 % of control | dose: 100.0 mg/kg/injection, schedule: Q04DX002 (ip), vehicle: saline 103 % of control | dose: 100.0 mg/kg/injection, schedule: Q04DX003 (ip), vehicle: carboxymethylcellulose (CMC) 101 % of control | [8] 104 % of control | dose: 200.0 mg/kg/injection, schedule: Q01DX009 (ip), vehicle: carboxymethylcellulose (CMC) 98 % of control and 100 % of control | dose: 200.0 mg/kg/injection, schedule: Q04DX002 (ip), vehicle: saline 105 % of control and 106 % of control | dose: 200.0 mg/kg/injection, schedule: Q04DX003 (ip), vehicle: carboxymethylcellulose (CMC) 98 % of control | [9] 105 % of control | dose: 400.0 mg/kg/injection, schedule: Q01DX009 (ip), vehicle: carboxymethylcellulose (CMC) 94 % of control and 96 % of control | dose: 400.0 mg/kg/injection, schedule: Q04DX002 (ip), vehicle: saline 97 % of control and 105 % of control | dose: 400.0 mg/kg/injection, schedule: Q04DX003 (ip), vehicle: carboxymethylcellulose (CMC) 101 % of control

COC(=O)c1cc(=O)c2c(Cl)cccc2[nH]1
inactive: [10] 96 % of control | [11] 110 % of control | [12] 95 % of control

C1CN2CCOB(O1)OCC2
inactive: dose: 69.0 mg/kg/injection, schedule: Q01DX009 (ip), vehicle: other 103 % of control | dose: 138.0 mg/kg/injection, schedule: Q01DX009 (ip), vehicle: other 98 % of control | dose: 275.0 mg/kg/injection, schedule: Q01DX009 (ip), vehicle: other 98 % of control

COc1cc(NS(C)(=O)=O)ccc1N
inactive: [13] 103 % of control | [10] 107 % of control | [14] 98 % of control | [11] 103 % of control | [12] 102 % of control

CC(=O)OC1OC(COC(=O)c2ccc([N+](=O)[O-])cc2)C(NC(=O)C(F)(F)F)C1OC(C)=O (stereo unspecified)
inactive: [10] 90 % of control | [11] 96 % of control | [12] 95 % of control

CC(=O)N=c1cc(-c2ccc(Cl)cc2)ss1
inactive: [15] 90 % of control | [16] 95 % of control | [17] 98 % of control

O=NN1CCN(c2ccccc2)C1=O
inactive: dose: 18.0 mg/kg/injection, schedule: Q01DX001 (ip), vehicle: carboxymethylcellulose (CMC) 94 % of control | dose: 37.0 mg/kg/injection, schedule: Q01DX001 (ip), vehicle: carboxymethylcellulose (CMC) 96 % of control | dose: 75.0 mg/kg/injection, schedule: Q01DX001 (ip), vehicle: carboxymethylcellulose (CMC) 102 % of control | [7] 98 % of control | dose: 150.0 mg/kg/injection, schedule: Q01DX001 (ip), vehicle: carboxymethylcellulose (CMC) 98 % of control | [8] 104 % of control | dose: 250.0 mg/kg/injection, schedule: Q01DX001 (ip), vehicle: carboxymethylcellulose (CMC) 96 % of control | dose: 300.0 mg/kg/injection, schedule: Q01DX001 (ip), vehicle: carboxymethylcellulose (CMC) 105 % of control | [9] 98 % of control | dose: 500.0 mg/kg/injection, schedule: Q01DX001 (ip), vehicle: carboxymethylcellulose (CMC) 106 % of control | [18] 91 % of control | dose: 800.0 mg/kg/injection, schedule: Q01DX001 (ip), vehicle: carboxymethylcellulose (CMC) 96 % of control

C=CCOC(=O)Nc1cccc(O)c1
inactive: dose: 100.0 mg/kg/injection, schedule: Q04DX002 (ip), vehicle: saline with Tween-80 106 % of control | dose: 200.0 mg/kg/injection, schedule: Q04DX002 (ip), vehicle: saline with Tween-80 110 % of control | dose: 400.0 mg/kg/injection, schedule: Q04DX002 (ip), vehicle: saline with Tween-80 103 % of control

O=c1nccc[nH]1
inactive: [10] 97 % of control | [11] 97 % of control

C1=C(c2ccccc2)N(C2CCCCC2)C(c2ccccc2)=CN1Cc1ccccc1
inactive: [19] 92 % of control | [20] 92 % of control

Cc1ccccc1Nc1ncnc2c1cnn2-c1ccccc1
inactive: [4] 102 % of control | [5] 105 % of control | [6] 115 % of control

O=C(O)c1ccc(/C=N/NC(=O)C(O)(c2ccccc2)c2ccccc2)cc1
inactive: [7] 108 % of control | [8] 108 % of control | [9] 108 % of control

CCCCN1C(=O)CC(C23C(=O)N(CCCC)C(=O)C2CCc2ncccc23)C1=O (stereo unspecified)
inactive: [21] 87 % of control | [1] 94 % of control | dose: 200.0 mg/kg/injection, schedule: Q01DX009 (ip), vehicle: Klucel (hydroxypropylcellulose) (HPC) 89 % of control | [2] 99 % of control | dose: 400.0 mg/kg/injection, schedule: Q01DX009 (ip), vehicle: Klucel (hydroxypropylcellulose) (HPC) 87 % of control | [3] 90 % of control

O=C1CCCCC1Oc1ccccc1 (stereo unspecified)
inactive: [22] 95 % of control | [15] 95 % of control | [23] 101 % of control | [16] 98 % of control | [24] 86 % of control | [17] 93 % of control

O=C(O)/C=C/c1nc2ccccc2c(=O)[nH]1
inactive: dose: 50.0 mg/kg/injection, schedule: Q01DX009 (ip), vehicle: Klucel (hydroxypropylcellulose) (HPC) 114 % of control | [21] 100 % of control

COc1cc(Cl)ccc1NC(=O)OCCc1ccccn1
inactive: [13] 97 % of control | [14] 100 % of control | dose: 400.0 mg/kg/injection, schedule: Q01DX009 (ip), vehicle: saline 97 % of control

CCOP(=S)(OCC)SC(C)C
inactive: [15] 97 % of control | [16] 97 % of control

O=C(N/N=C/c1ccc([N+](=O)[O-])s1)c1ccccc1O
inactive: [10] 94 % of control | [11] 100 % of control | [12] 97 % of control

Cc1cnc(-n2nc(-c3ccccc3)c3c2-c2ccccc2C3)nc1-c1ccccc1O
inactive: dose: 6.25 mg/kg/injection, schedule: Q01DX009 (ip), vehicle: Klucel (hydroxypropylcellulose) (HPC) 91 % of control | dose: 12.5 mg/kg/injection, schedule: Q01DX009 (ip), vehicle: Klucel (hydroxypropylcellulose) (HPC) 87 % of control

Cc1ccc(C)c(NC(=O)Oc2ccc(Cl)c(C)c2)c1
inactive: [19] 102 % of control | [20] 105 % of control | dose: 400.0 mg/kg/injection, schedule: Q04DX002 (ip), vehicle: Klucel (hydroxypropylcellulose) (HPC) 108 % of control

Cc1ccc(Cc2cc(=O)[nH]c(=S)[nH]2)cc1
inactive: [1] 98 % of control | [2] 93 % of control | [3] 92 % of control

CC(=O)OC1CSC1OC(C)=O (stereo unspecified)
inactive: dose: 100.0 mg/kg/injection, schedule: Q01DX001 (ip), vehicle: saline with Tween-80 95 % of control | dose: 200.0 mg/kg/injection, schedule: Q01DX001 (ip), vehicle: saline with Tween-80 93 % of control | dose: 400.0 mg/kg/injection, schedule: Q01DX001 (ip), vehicle: saline with Tween-80 98 % of control

O=C(NC(=O)c1cccc(Br)c1)Nc1ccccc1
inactive: dose: 264.0 mg/kg/injection, schedule: Q01DX001 (ip), vehicle: carboxymethylcellulose (CMC) 92 % of control | [9] 96 % of control | [18] 90 % of control

CC1(C)N=C(N)N=C(N)N1CCc1ccccc1
inactive: dose: 25.0 mg/kg/injection, schedule: Q01DX001 (ip), vehicle: saline with Tween-80 101 % of control | dose: 50.0 mg/kg/injection, schedule: Q01DX001 (ip), vehicle: saline with Tween-80 104 % of control

Nc1ncccc1[N+](=O)[O-]
inactive: [22] 109 % of control | [23] 98 % of control | [24] 112 % of control
